# Laboratory results as given in patent US11702411B2, “Pyridine, pyrazine, and triazine compounds as allosteric SHP2 inhibitors” (Revolution Medicines, Inc., priority 2017, dated 2023).
# Where two headings read alike, the source gives them in different places.
# Target: SHP2 (Homo sapiens (Human), UniProt Q06124)
# Assay: SHP2 allosteric inhibition assay (DiFMUP prompt fluorescence, activating peptide)
# Type: biochemical
# Conditions: 0.2 nM SHP2, 0.5 μM activating peptide, DiFMUP substrate
# Description: Without wishing to be bound by theory, SHP is allosterically activated through binding of bis-tyrosyl-phosphorylated peptides to its Src Homology 2 (SH2) domains. The latter activation step leads to the release of the auto-inhibitory interface of SHP2, which in turn renders the SHP2 protein tyrosine phosphatase (PTP) active and available for substrate recognition and reaction catalysis. The catalytic activity of SHP2 was monitored using the surrogate substrate DiFMUP in a prompt fluorescence assay format.
# The phosphatase reactions were performed at room temperature in 96-well black polystyrene plate, flat bottom, non-binding surface (Corning, Cat #3650) using a final reaction volume of 100 μL and the following assay buffer conditions: 50 mM HEPES, pH 7.2, 100 mM NaCl, 0.5 mM EDTA, 0.05% P-20, 1 mM DTT.
# The inhibition of SHP2 by compounds of the present disclosure (concentrations varying from 0.00005-10 μM) was monitored using an assay in which 0.2 nM of SHP2 was incubated with 0.5 μM of Activating Peptide 1 (sequence: H2N-LN(pY)IDLDLV(dPEG8)LST(pY)ASINFQK-amide) or Activating Peptide 2 (sequence: H2N-LN(pY)AQLWHA(dPEG8)LTI(pY)ATIRRF-amide). After 30-60-minutes incubation at 25° C., the surrogate substrate DiFMUP (Invitrogen, Cat #D6567) was added to the reaction and activity was determined by a kinetic read using a microplate reader (Envision, Perkin-Elmer or Spectramax M5, Molecular Devices). The excitation and emission wavelengths were 340 nm and 450 nm, respectively. Initial rates were determined from a linear fit of the data, and the inhibitor dose response curves were analyzed using normalized IC50 regression curve fitting with control based normalization.
# Chain of SHP2 (Q06124 whole entry): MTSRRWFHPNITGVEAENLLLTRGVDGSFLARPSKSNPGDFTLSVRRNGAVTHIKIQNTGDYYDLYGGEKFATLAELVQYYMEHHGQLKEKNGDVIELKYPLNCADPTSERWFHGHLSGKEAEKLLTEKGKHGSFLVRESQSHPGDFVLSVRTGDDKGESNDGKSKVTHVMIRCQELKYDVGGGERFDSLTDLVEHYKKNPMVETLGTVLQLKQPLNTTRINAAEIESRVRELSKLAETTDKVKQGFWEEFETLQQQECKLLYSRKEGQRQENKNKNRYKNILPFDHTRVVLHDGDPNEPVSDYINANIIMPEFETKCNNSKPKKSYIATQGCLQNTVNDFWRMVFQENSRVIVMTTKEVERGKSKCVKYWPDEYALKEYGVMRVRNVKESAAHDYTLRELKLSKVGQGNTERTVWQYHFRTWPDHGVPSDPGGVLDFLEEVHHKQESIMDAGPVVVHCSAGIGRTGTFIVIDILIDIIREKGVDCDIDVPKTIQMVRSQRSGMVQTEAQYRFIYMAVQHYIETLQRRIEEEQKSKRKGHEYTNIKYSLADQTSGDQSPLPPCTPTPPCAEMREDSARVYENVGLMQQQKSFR
Structure (SMILES),IC50 (read-out: SHP2 Allosteric IC50),IC50 (read-out: SHP2 IC50)
"C[C@@H]1OCC2(CCN(c3ncc(-c4ccc5[nH]ncc5c4)nc3CO)CC2)[C@@H]1N [Compound 20, {3-[(3S,4S)-4-amino-3-methyl-2-oxa-8-azaspiro[4.5]decan-8-yl]-6-(2H-indazol-5-yl)pyrazin-2-yl}methanol]",50 to 500 nM,
"N[C@@H]1CCCC12CCN(c1ncc(-c3cccc(Cl)c3Cl)nc1C(F)F)CC2 [Compound 34, (1R)-8-[5-(2,3-dichlorophenyl)-3-(difluoromethyl)pyrazin-2-yl]-8-azaspiro[4.5]decan-1-amine]",50 to 500 nM,
"C[C@@H]1OCC2(CCN(c3ncc(-c4cc(Cl)c5cn[nH]c5c4)nc3CO)CC2)[C@@H]1N [Compound 13, {3-[(3S,4S)-4-amino-3-methyl-2-oxa-8-azaspiro[4.5]decan-8-yl]-6-(4-chloro-2H-indazol-6-yl)pyrazin-2-yl}methanol]",50 to 500 nM,
"C[C@@H]1OCC2(CCN(c3ncc(Sc4ccnc(N5CC(O)C5)c4Cl)nc3CO)CC2)[C@@H]1N [Compound 29, 1-[4-({5-[(3S,4S)-4-amino-3-methyl-2-oxa-8-azaspiro[4.5]decan-8-yl]-6-(hydroxymethyl)pyrazin-2-yl}sulfanyl)-3-chloropyridin-2-yl]azetidin-3-ol]",≤ 50 nM,
"C[C@@H]1OCC2(CCN(c3ncc(-c4cc5ccccc5n4C)nc3CO)CC2)[C@@H]1N [Compound 15, {3-[(3S,4S)-4-amino-3-methyl-2-oxa-8-azaspiro[4.5]decan-8-yl]-6-(1-methyl-1H-indol-2-yl)pyrazin-2-yl}methanol]",≤ 50 nM,
"C[C@@H]1OCC2(CCN(c3ncc(-c4c(Cl)ccc(Cl)c4Cl)nc3CO)CC2)[C@@H]1N [Compound 18, {3-[(3S,4S)-4-amino-3-methyl-2-oxa-8-azaspiro[4.5]decan-8-yl]-6-(2,3,6-trichlorophenyl)pyrazin-2-yl}methanol]",50 to 500 nM,
"C[C@@H]1OCC2(CCN(c3ncc(Sc4cccc(C#N)c4Cl)nc3CO)CC2)[C@@H]1N [Compound 22, 3-({5-[(3S,4S)-4-amino-3-methyl-2-oxa-8-azaspiro[4.5]decan-8-yl]-6-(hydroxymethyl)pyrazin-2-yl}sulfanyl)-2-chlorobenzonitrile]",≤ 50 nM,
"C[C@@H]1OCC2(CCN(c3ncc(Sc4ccnc(N)c4Cl)nc3CO)CC2)[C@@H]1N [Compound 31, {6-[(2-amino-3-chloropyridin-4-yl)sulfanyl]-3-[(3S,4S)-4-amino-3-methyl-2-oxa-8-azaspiro[4.5]decan-8-yl]pyrazin-2-yl}methanol]",≤ 50 nM,
"C[C@@H]1OCC2(CCN(c3ncc(Sc4cc(N)ncc4Cl)nc3CO)CC2)[C@@H]1N [Compound 32, {3-[(3S,4S)-4-amino-3-methyl-2-oxa-8-azaspiro[4.5]decan-8-yl]-6-[(2-amino-5-chloropyridin-4-yl)sulfanyl]pyrazin-2-yl}methanol]",≤ 50 nM,
"COc1cccc(Sc2cnc(N3CCC4(CC3)CO[C@@H](C)[C@H]4N)c(CO)n2)c1Cl [Compound 25, {3-[(3S,4S)-4-amino-3-methyl-2-oxa-8-azaspiro[4.5]decan-8-yl]-6-[(2-chloro-3-methoxyphenyl)sulfanyl]pyrazin-2-yl}methanol]",≤ 50 nM,
"COc1ccc(Cl)c(Cl)c1-c1cnc(N2CCC3(CC2)CO[C@@H](C)[C@H]3N)c(CO)n1 [Compound 7, {3-[(3S,4S)-4-amino-3-methyl-2-oxa-8-azaspiro[4.5]decan-8-yl]-6-(2,3-dichloro-6-methoxyphenyl)pyrazin-2-yl}methanol]",> 500 nM,
"C[C@@H]1OCC2(CCN(c3ncc(Sc4ccnc(C#N)c4Cl)nc3CO)CC2)[C@@H]1N [Compound 23, 4-({5-[(3S,4S)-4-amino-3-methyl-2-oxa-8-azaspiro[4.5]decan-8-yl]-6-(hydroxymethyl)pyrazin-2-yl}sulfanyl)-3-chloropyridine-2-carbonitrile]",≤ 50 nM,
"C[C@@H]1OCC2(CCN(c3ncc(Sc4ccnc(N5CC(S(C)(=O)=O)C5)c4Cl)nc3CO)CC2)[C@@H]1N [Compound 26, {3-[(3S,4S)-4-amino-3-methyl-2-oxa-8-azaspiro[4.5]decan-8-yl]-6-{[3-chloro-2-(3-methanesulfonylazetidin-1-yl)pyridin-4-yl]sulfanyl}pyrazin-2-yl}methanol]",≤ 50 nM,
"CC1(N)CCN(c2ncc(-c3cccc(Cl)c3Cl)nc2CO)CC1 [Compound 3, [3-(4-amino-4-methylpiperidin-1-yl)-6-(2,3-dichlorophenyl)pyrazin-2-yl]methanol]",50 to 500 nM,461 nM
"C[C@@H]1OCC2(CCN(c3ncc(-c4ccc5nccnc5c4)nc3CO)CC2)[C@@H]1N [Compound 12, {3-[(3S,4S)-4-amino-3-methyl-2-oxa-8-azaspiro[4.5]decan-8-yl]-6-(quinoxalin-6-yl)pyrazin-2-yl}methanol]",> 500 nM,
"C[C@@H]1OCC2(CCN(c3ncc(-c4ccc5c(c4Cl)OCCC5)nc3CO)CC2)[C@@H]1N [Compound 16, {3-[(3S,4S)-4-amino-3-methyl-2-oxa-8-azaspiro[4.5]decan-8-yl]-6-(8-chloro-3,4-dihydro-2H-1-benzopyran-7-yl)pyrazin-2-yl}methanol]",50 to 500 nM,
"C[C@@H]1OCC2(CCN(c3ncc(-c4cccc(Cl)c4Cl)nc3CO)CC2)[C@@H]1N [Compound 21, {3-[(3S,4S)-4-amino-3-methyl-2-oxa-8-azaspiro[4.5]decan-8-yl]-6-(2,3-dichlorophenyl)pyrazin-2-yl}methanol]",≤ 50 nM,
"COc1ccc(F)c(-c2cnc(N3CCC4(CC3)CO[C@@H](C)[C@H]4N)c(CO)n2)c1Cl [Compound 17, {3-[(3S,4S)-4-amino-3-methyl-2-oxa-8-azaspiro[4.5]decan-8-yl]-6-(2-chloro-6-fluoro-3-methoxyphenyl)pyrazin-2-yl}methanol]",> 500 nM,
"N[C@@H]1CCCC12CCN(c1ncc(-c3cccc(Cl)c3Cl)nc1CO)CC2 [Compound 2, (3-[(1R)-1-amino-8-azaspiro[4.5]decan-8-yl]-6-(2,3-dichlorophenyl)pyrazin-2-yl)methanol]",50 to 500 nM,88 nM
"C[C@@H]1OCC2(CCN(c3ncc(-c4ccc5c(c4Cl)OCC5)nc3CO)CC2)[C@@H]1N [Compound 10, {3-[(3S,4S)-4-amino-3-methyl-2-oxa-8-azaspiro[4.5]decan-8-yl]-6-(7-chloro-2,3-dihydro-1-benzofuran-6-yl)pyrazin-2-yl}methanol]",50 to 500 nM,
"C[C@@H]1OCC2(CCN(c3ccc(Sc4ccnc(N)c4Cl)nc3CO)CC2)[C@@H]1N [Compound 5, [6-[(2-amino-3-chloro-4-pyridyl)sulfanyl]-3-[(3S,4S)-4-amino-3-methyl-2-oxa-8-azaspiro[4.5]decan-8-yl]-2-pyridyl]methanol]",≤ 50 nM,
"COc1nccc(Sc2cnc(N3CCC4(CC3)CO[C@@H](C)[C@H]4N)c(CO)n2)c1Cl [Compound 24, {3-[(3S,4S)-4-amino-3-methyl-2-oxa-8-azaspiro[4.5]decan-8-yl]-6-[(3-chloro-2-methoxypyridin-4-yl)sulfanyl]pyrazin-2-yl}methanol]",≤ 50 nM,
"C[C@@H]1OCC2(CCN(c3ncc(-c4cc5[nH]ncc5cc4Cl)nc3CO)CC2)[C@@H]1N [Compound 14, {3-[(3S,4S)-4-amino-3-methyl-2-oxa-8-azaspiro[4.5]decan-8-yl]-6-(5-chloro-2H-indazol-6-yl)pyrazin-2-yl}methanol]",50 to 500 nM,
